Test results: ChEMBL document CHEMBL3885861, “Open TG-GATES”

Organism: Rattus norvegicus
Experiment: Open TG-GATES - Regimen: Daily Repeat
Assay type: toxicity, organism-based, Sprague-Dawley
Parameters: regimen Daily Repeat, gender Male, age 6 weeks
Settings: in vivo, po, route gavage; for APTT / Bas / Eos / Fbg / Hb / Ht / Lym / MCHC / MCV / Mono / Neu / PT / Plat / RBC / Ret / WBC: tissue Blood; for KIDNEY_L / KIDNEY_R / KIDNEY_TOTAL: tissue Kidney; for LIVER: tissue Liver; for ALP / ALT / AST / CRE / DBIL / GLC / IP / K / LDH / Na / PL / RALB / TBIL / TC / TG / TP / gamma-GTP: tissue Plasma
[1] = 0 mg/kg, 72 h, dose level Control, time 3 day
[2] = 0 mg/kg, […], dose level Control, time 7 day
[3] = 0 mg/kg, […], dose level Control, time 14 day
[4] = 0 mg/kg, […], dose level Control, time 28 day
[5] = 100 mg/kg, 72 h, dose level Low, time 3 day
[6] = 100 mg/kg, […], dose level Low, time 7 day
[7] = 100 mg/kg, […], dose level Low, time 14 day
[8] = 100 mg/kg, […], dose level Low, time 28 day

C#C[C@]1(O)CC[C@H]2[C@@H]3CCC4=Cc5oncc5C[C@]4(C)[C@H]3CC[C@@]21C [DANAZOL]
TERMINAL_BW [1]: 236.4 g | APTT [1]: 23.9 s | Bas [1]: 0% | Eos [1]: 0.8% | Fbg [1]: 304.4 mg/dL | Hb [1]: 13.4 g/dL | Ht [1]: 40.8% | Lym [1]: 77.4% | MCHC [1]: 32.7% | MCV [1]: 63.8 fL | Mono [1]: 3% | Neu [1]: 17.2% | PT [1]: 15.5 s | Plat [1]: 120.7 x10_4/uL | RBC [1]: 639.8 x10_4/ul | Ret [1]: 6.7% | WBC [1]: 80.8 x10_2/uL | KIDNEY_L [1]: 1 g | KIDNEY_R [1]: 1 g | KIDNEY_TOTAL [1]: 2 g | LIVER [1]: 11.6 g | ALP [1]: 1436.8 IU/L | ALT [1]: 45.8 IU/L | AST [1]: 72.4 IU/L | CRE [1]: 0.2 mg/dL | DBIL [1]: 0 mg/dL | GLC [1]: 197.6 mg/dL | IP [1]: 7.8 mg/dL | K [1]: 4.2 meq/L | LDH [1]: 190 IU/L | Na [1]: 142.6 meq/L | PL [1]: 140 mg/dL | RALB [1]: 3.1 g/dL | TBIL [1]: 0.008 mg/dL | TC [1]: 72.2 mg/dL | TG [1]: 95.6 mg/dL | TP [1]: 5.5 g/dL | gamma-GTP [1]: 1.6 IU/L | TERMINAL_BW [2]: 266.9 g | TERMINAL_BW [3]: 328.6 g | TERMINAL_BW [4]: 402.2 g | APTT [2]: 22.8 s | Bas [2]: 0% | Eos [2]: 1% | Fbg [2]: 302.8 mg/dL | Hb [2]: 13.8 g/dL | Ht [2]: 40.8% | Lym [2]: 76.8% | MCHC [2]: 33.9% | MCV [2]: 60.1 fL | Mono [2]: 3% | Neu [2]: 18.8% | PT [2]: 15.2 s | Plat [2]: 116.5 x10_4/uL | RBC [2]: 678.8 x10_4/ul | Ret [2]: 5.9% | WBC [2]: 114.8 x10_2/uL | APTT [3]: 24.6 s | Bas [3]: 0% | Eos [3]: 0.8% | Fbg [3]: 325.6 mg/dL | Hb [3]: 14.5 g/dL | Ht [3]: 41.5% | Lym [3]: 83% | MCHC [3]: 34.9% | MCV [3]: 60.6 fL | Mono [3]: 2% | Neu [3]: 13.4% | PT [3]: 15.3 s | Plat [3]: 124.1 x10_4/uL | RBC [3]: 685.8 x10_4/ul | Ret [3]: 3.8% | WBC [3]: 122.1 x10_2/uL | APTT [4]: 23.5 s | Bas [4]: 0% | Eos [4]: 1% | Fbg [4]: 293 mg/dL | Hb [4]: 14.6 g/dL | Ht [4]: 42.9% | Lym [4]: 82.8% | MCHC [4]: 34.1% | MCV [4]: 57.9 fL | Mono [4]: 1.8% | Neu [4]: 13.6% | PT [4]: 15.9 s | Plat [4]: 101.9 x10_4/uL | RBC [4]: 740 x10_4/ul | Ret [4]: 2.1% | WBC [4]: 119.8 x10_2/uL | KIDNEY_L [2]: 1.1 g | KIDNEY_R [2]: 1.1 g | KIDNEY_TOTAL [2]: 2.3 g | KIDNEY_L [3]: 1.3 g | KIDNEY_R [3]: 1.4 g | KIDNEY_TOTAL [3]: 2.7 g | KIDNEY_L [4]: 1.4 g | KIDNEY_R [4]: 1.4 g | KIDNEY_TOTAL [4]: 2.8 g | LIVER [2]: 12 g | LIVER [3]: 14.6 g | LIVER [4]: 15.8 g | ALP [2]: 1763.8 IU/L | ALT [2]: 42 IU/L | AST [2]: 69.6 IU/L | CRE [2]: 0.2 mg/dL | DBIL [2]: 0 mg/dL | GLC [2]: 202.8 mg/dL | IP [2]: 7.2 mg/dL | K [2]: 4.4 meq/L | LDH [2]: 184 IU/L | Na [2]: 141.8 meq/L | PL [2]: 157 mg/dL | RALB [2]: 3 g/dL | TBIL [2]: 0.004 mg/dL | TC [2]: 80.4 mg/dL | TG [2]: 106.8 mg/dL | TP [2]: 5.5 g/dL | gamma-GTP [2]: 1.6 IU/L | ALP [3]: 1603.8 IU/L | ALT [3]: 36.8 IU/L | AST [3]: 65.6 IU/L | CRE [3]: 0.2 mg/dL | DBIL [3]: 0 mg/dL | GLC [3]: 188.2 mg/dL | IP [3]: 7.2 mg/dL | K [3]: 4.2 meq/L | LDH [3]: 186.6 IU/L | Na [3]: 142.2 meq/L | PL [3]: 158 mg/dL | RALB [3]: 3.1 g/dL | TBIL [3]: 0.004 mg/dL | TC [3]: 74.4 mg/dL | TG [3]: 139.8 mg/dL | TP [3]: 5.8 g/dL | gamma-GTP [3]: 3 IU/L | ALP [4]: 1301.4 IU/L | ALT [4]: 41.8 IU/L | AST [4]: 63.8 IU/L | CRE [4]: 0.2 mg/dL | DBIL [4]: 0 mg/dL | GLC [4]: 200.4 mg/dL | IP [4]: 6.4 mg/dL | K [4]: 4 meq/L | LDH [4]: 141.6 IU/L | Na [4]: 141.8 meq/L | PL [4]: 144.2 mg/dL | RALB [4]: 3 g/dL | TBIL [4]: 0 mg/dL | TC [4]: 71 mg/dL | TG [4]: 118.2 mg/dL | TP [4]: 5.9 g/dL | gamma-GTP [4]: 3.4 IU/L | TERMINAL_BW [5]: 235.6 g | APTT [5]: 23.6 s | Bas [5]: 0% | Eos [5]: 1% | Fbg [5]: 344.8 mg/dL | Hb [5]: 13.5 g/dL | Ht [5]: 41% | Lym [5]: 77% | MCHC [5]: 32.8% | MCV [5]: 63 fL | Mono [5]: 2.8% | Neu [5]: 19% | PT [5]: 16.3 s | Plat [5]: 115.1 x10_4/uL | RBC [5]: 651.2 x10_4/ul | Ret [5]: 6.3% | WBC [5]: 91.5 x10_2/uL | KIDNEY_L [5]: 1 g | KIDNEY_R [5]: 1 g | KIDNEY_TOTAL [5]: 2.1 g | LIVER [5]: 11.7 g | ALP [5]: 1493.6 IU/L | ALT [5]: 45.6 IU/L | AST [5]: 72.4 IU/L | CRE [5]: 0.2 mg/dL | DBIL [5]: 0 mg/dL | GLC [5]: 187.2 mg/dL | IP [5]: 7 mg/dL | K [5]: 4.3 meq/L | LDH [5]: 168.2 IU/L | Na [5]: 143 meq/L | PL [5]: 131.2 mg/dL | RALB [5]: 3.1 g/dL | TBIL [5]: 0 mg/dL | TC [5]: 55.2 mg/dL | TG [5]: 161.4 mg/dL | TP [5]: 5.7 g/dL | gamma-GTP [5]: 1.8 IU/L | TERMINAL_BW [6]: 261.4 g | TERMINAL_BW [7]: 310 g | TERMINAL_BW [8]: 405.6 g | APTT [6]: 25 s | Bas [6]: 0% | Eos [6]: 0.4% | Fbg [6]: 318 mg/dL | Hb [6]: 13.7 g/dL | Ht [6]: 40.4% | Lym [6]: 84% | MCHC [6]: 33.9% | MCV [6]: 60.1 fL | Mono [6]: 2% | Neu [6]: 13% | PT [6]: 15.7 s | Plat [6]: 117.6 x10_4/uL | RBC [6]: 672.6 x10_4/ul | Ret [6]: 5.1% | WBC [6]: 112.4 x10_2/uL | APTT [7]: 26.6 s | Bas [7]: 0% | Eos [7]: 0.8% | Fbg [7]: 354.4 mg/dL | Hb [7]: 14.5 g/dL | Ht [7]: 41.1% | Lym [7]: 84.8% | MCHC [7]: 35.2% | MCV [7]: 60.3 fL | Mono [7]: 1.8% | Neu [7]: 12% | PT [7]: 16.2 s | Plat [7]: 134.9 x10_4/uL | RBC [7]: 681.2 x10_4/ul | Ret [7]: 3.3% | APTT [8]: 26.9 s | Bas [8]: 0% | Eos [8]: 1% | Fbg [8]: 326.6 mg/dL | Hb [8]: 14.5 g/dL | Ht [8]: 42.4% | Lym [8]: 78.8% | MCHC [8]: 34.2% | MCV [8]: 56.1 fL | Mono [8]: 1.6% | Neu [8]: 17.6% | PT [8]: 17.1 s | Plat [8]: 109.1 x10_4/uL | RBC [8]: 756.2 x10_4/ul | Ret [8]: 2.4% | WBC [8]: 85.7 x10_2/uL | KIDNEY_L [6]: 1.1 g | KIDNEY_R [6]: 1.1 g | KIDNEY_TOTAL [6]: 2.2 g | KIDNEY_L [7]: 1.3 g | KIDNEY_R [7]: 1.3 g | KIDNEY_TOTAL [7]: 2.6 g | KIDNEY_L [8]: 1.5 g | KIDNEY_R [8]: 1.5 g | KIDNEY_TOTAL [8]: 2.9 g | LIVER [6]: 12.7 g | LIVER [7]: 14.9 g | LIVER [8]: 18.3 g | ALP [6]: 1505.8 IU/L | ALT [6]: 39.6 IU/L | AST [6]: 65 IU/L | CRE [6]: 0.2 mg/dL | DBIL [6]: 0 mg/dL | GLC [6]: 181.8 mg/dL | IP [6]: 6.2 mg/dL | K [6]: 4.4 meq/L | LDH [6]: 139.6 IU/L | Na [6]: 143.2 meq/L | PL [6]: 128.4 mg/dL | RALB [6]: 3 g/dL | TBIL [6]: 0.002 mg/dL | TC [6]: 51.8 mg/dL | TG [6]: 140.4 mg/dL | TP [6]: 5.6 g/dL | gamma-GTP [6]: 2.2 IU/L | ALP [7]: 1681.6 IU/L | ALT [7]: 38.4 IU/L | AST [7]: 57.4 IU/L | CRE [7]: 0.2 mg/dL | DBIL [7]: 0 mg/dL | GLC [7]: 182.8 mg/dL | IP [7]: 6.8 mg/dL | K [7]: 4.1 meq/L | LDH [7]: 154 IU/L | Na [7]: 143.6 meq/L | PL [7]: 132.8 mg/dL | RALB [7]: 3.1 g/dL | TBIL [7]: 0 mg/dL | TC [7]: 49 mg/dL | TG [7]: 177.6 mg/dL | TP [7]: 6 g/dL | gamma-GTP [7]: 2.6 IU/L | ALP [8]: 1348.8 IU/L | ALT [8]: 39.8 IU/L | AST [8]: 59.2 IU/L | CRE [8]: 0.2 mg/dL | DBIL [8]: 0 mg/dL | GLC [8]: 191.4 mg/dL | IP [8]: 6.1 mg/dL | K [8]: 3.9 meq/L | LDH [8]: 121.8 IU/L | Na [8]: 142.8 meq/L | PL [8]: 142.4 mg/dL | RALB [8]: 3 g/dL | TBIL [8]: 0 mg/dL | TC [8]: 46.6 mg/dL | TG [8]: 334.4 mg/dL | TP [8]: 6.2 g/dL | gamma-GTP [8]: 3.2 IU/L
